Values quoted from earlier work in publication PMC4393105, “tRNA^Glu Increases the Affinity of Glutamyl-tRNA Synthetase for Its Inhibitor Glutamyl-Sulfamoyl-Adenosine, an Analogue of the Aminoacylation Reaction Intermediate Glutamyl-AMP: Mechanistic and Evolutionary Implications” (PLoS ONE, 2015).
Read-outs that look alike come from different tables or passages of the source.

Key:
PheRS from baker’s yeast = details: read-out: K d aa-AMP aaRS, cited from earlier work
[1] = target: ThrRS from yeast mitochodria; design: method as in PMID 22773845; details: read-out: K d aa-AMP aaRS; cited from earlier work
IleRS from E. coli = system: IleRS from E. coli; design: method as in earlier work; details: reviewed by Fersht, 1998, 48; cited from earlier work

Nc1ncnc2c1ncn2[C@@H]1O[C@H](COP(=O)(O)OC(=O)[C@@H](N)Cc2ccccc2)[C@@H](O)[C@H]1O [Phe-AMP]
Kd (PheRS from baker’s yeast; cognate aa-AMP): 5 nM

Nc1ncnc2c1ncn2C1OC(COS(=O)(=O)NC(=O)[C@@H](N)CO)[C@@H](O)[C@H]1O (some centres unmarked) [Ser-AMS, Seryl-sulfamoyl-adenosine]
Kd [1]: 450 nM

C[C@@H](O)[C@H](N)C(=O)NS(=O)(=O)OC[C@@H]1O[C@H](n2cnc3c(N)ncnc32)[C@@H](O)[C@H]1O [Thr-AMS, Threonyl-sulfamoyl-adenosine]
Kd [1]: 4.5 nM

Nc1ncnc2c1ncn2[C@@H]1O[C@H](COP(=O)(O)OC(=O)[C@@H](N)Cc2ccc(O)cc2)[C@@H](O)[C@H]1O [Tyr-AMP, tyrosyl-AMP]
Kd (PheRS from baker’s yeast; non-cognate aa-AMP): 1000 nM

CC(C)[C@H](N)C(=O)OP(=O)(O)OC[C@H]1O[C@@H](n2cnc3c(N)ncnc32)[C@H](O)[C@@H]1O [Val-AMP, valyl-adenylate]
fold weaker affinity than Ile-AMP (IleRS from E. coli): This IleRS binds Val-AMP with a 150-fold weaker affinity than Ile-AMP.
